Holding throughout (assay type): cell-based, human
The test system of assay [1] is hTERT-RPE1 cells. Description: MTT cytotoxicity assay, hTERT-RPE1 normal cells. Conditions: read-out: IC50 hTERT-RPE1. Here is the method: (§1) The anticancer activities of compounds 17–24, 41–56 against MCF-7, MDA-MB-231 and hTERT-RPE1 cells were determined in vitro by an MTT assay. […] The data was calculated and presented as IC50 values in Table 1.
(§2) The cytotoxicities of the compounds were evaluated by the MTT assay, which is based on the conversion of MTT to formazan crystals by mitochondrial dehydrogenases. […] The medium was incubated with 20 μL of 5 mg/mL MTT solution for 3 h in a humidified incubator containing 5% CO2. The purple coloured formazan crystals formed in the wells were dissolved in DMSO and their absorbances were measured at 570 nm with a microplate reader. Cell viability was expressed as a percentage of the value in control cultures.
A general note: Formazan colour is commonly taken as a measure of viable cells.

Assay [2] deals with MCF-7 cells. The assay can be described thus: MTT cytotoxicity assay, MCF-7. Conditions: read-out: IC50 MCF-7. The procedure: as §1, §2
Assay [3] concerns MDA-MB-231 cells. Description: MTT cytotoxicity assay, MDA-MB-231. The note with it: read-out: IC50 MDA-MB-231. Here is the method: The data was calculated and presented as IC50 values in Table 1.
as §2

Setting [4] is: normal human retinal pigment epithelial cell line hTERT-RPE1, MTT method, 24 h treatment, mean ± SD.
Where [5] appears, read: MCF7, human breast cancer cell line MCF-7, MTT method, 24 h treatment, mean ± SD.
[6] abbreviates: human breast cancer cell line MDA-MB-231, MTT method, 24 h treatment, mean ± SD.

Where a name gives a salt, the structure may show the parent alone. Read-outs that look alike come from different tables or passages of the source.

With `COc1cccc2c1C(=O)c1c(O)c3c(c(O)c1C2=O)C[C@@](O)(C(=O)CO)C[C@@H]3O[C@H]1C[C@H](N)[C@H](O)[C@H](C)O1` [ADR, doxorubicin, reference compound], the IC50 was determined as 2.76 ± 0.11 µM in assay [1] (setting [4]) and 0.49 ± 0.09 µM in assay [2] (setting [5]).
Turning to `COC(=O)/C=C/c1ccc(OC(=O)[C@@]2(C)CC[C@]3(C)CC[C@]4(C)C(=CC(=O)[C@@H]5[C@@]6(C)CC[C@H](OC(=O)[C@@H](N)CCSC)C(C)(C)[C@@H]6CC[C@]54C)[C@@H]3C2)c(OC)c1` [Compound 41, Ferulic acid methyl ester 3β-(l-methionine)-11-oxo-olean-12-en-30-oate hydrochloride], the IC50 in assay [1] (setting [4]) was 10.4 ± 0.8 µM; in assay [2] (setting [5]) it was 6 ± 0.43 µM; in assay [3] (setting [6]), 3.52 ± 0.61 µM.
As to `COC(=O)/C=C/c1ccc(OC(=O)[C@@]2(C)CC[C@]3(C)CC[C@]4(C)C(=CC(=O)[C@@H]5[C@@]6(C)CC[C@H](OC(=O)[C@@H](N)CC[Se]C)C(C)(C)[C@@H]6CC[C@]54C)[C@@H]3C2)c(OC)c1` [Compound 42, Ferulic acid methyl ester 3β-(l-selenomethionine)-11-oxo-olean-12-en-30-oate hydrochloride], the IC50 in assay [1] (Homo sapiens, hTERT-RPE1, 24 h) was 4.93 ± 0.36 µM; in assay [2] (Homo sapiens, MCF7, 24 h), 1.88 ± 0.2 µM; in assay [3] (Homo sapiens, MDA-MB-231, 24 h), 1.37 ± 0.18 µM.
For the compound `CCOC(=O)/C=C/c1ccc(OC(=O)[C@@]2(C)CC[C@]3(C)CC[C@]4(C)C(=CC(=O)[C@@H]5[C@@]6(C)CC[C@H](OC(=O)[C@@H](N)CCSC)C(C)(C)[C@@H]6CC[C@]54C)[C@@H]3C2)c(OC)c1` [Compound 43, Ferulic acid ethyl ester 3β-(l-methionine)-11-oxo-olean-12-en-30-oate hydrochloride], the IC50 in assay [1] (setting [4]) worked out at 16.3 ± 0.51 µM; in assay [2] (setting [5]) it was 8.62 ± 0.23 µM; in assay [3] (setting [6]), 5.36 ± 0.44 µM.
`CCOC(=O)/C=C/c1ccc(OC(=O)[C@@]2(C)CC[C@]3(C)CC[C@]4(C)C(=CC(=O)[C@@H]5[C@@]6(C)CC[C@H](OC(=O)[C@@H](N)CC[Se]C)C(C)(C)[C@@H]6CC[C@]54C)[C@@H]3C2)c(OC)c1` [Compound 44, Ferulic acid ethyl ester 3β-(l-selenomethionine)-11-oxo-olean-12-en-30-oate hydrochloride]: the IC50 amounted to 12.3 ± 0.46 µM in assay [1] (Homo sapiens, hTERT-RPE1, 24 h); 8.45 ± 0.32 µM in assay [2] (Homo sapiens, MCF7, 24 h); 3.49 ± 0.61 µM in assay [3] (Homo sapiens, MDA-MB-231, 24 h).
Take `COC(=O)/C=C/c1ccc(OC(=O)[C@@]2(C)CC[C@]3(C)CC[C@]4(C)C(=CC(=O)[C@@H]5[C@@]6(C)CC[C@H](OC(=O)[C@@H](N)CCSC)C(C)(C)[C@@H]6CC[C@]54C)[C@@H]3C2)cc1` [Compound 45, trans-4-Hydroxycinnamic acid methyl ester 3β-(l-methionine)-11-oxo-olean-12-en-30-oate hydrochloride]: the figures for the IC50 in assay [1] (setting [4]), in assay [2] (setting [5]) and in assay [3] (setting [6]) were 8.48 ± 0.73 µM, 7.24 ± 0.3 µM and 6.43 ± 0.84 µM, respectively.
Regarding `COC(=O)/C=C/c1ccc(OC(=O)[C@@]2(C)CC[C@]3(C)CC[C@]4(C)C(=CC(=O)[C@@H]5[C@@]6(C)CC[C@H](OC(=O)[C@@H](N)CC[Se]C)C(C)(C)[C@@H]6CC[C@]54C)[C@@H]3C2)cc1` [Compound 46, trans-4-Hydroxycinnamic acid methyl ester 3β-(l-selenomethionine)-11-oxo-olean-12-en-30-oate hydrochloride], the IC50 was 6.33 ± 0.19 µM in assay [1] (Homo sapiens, hTERT-RPE1, 24 h); 6.02 ± 0.35 µM in assay [2] (Homo sapiens, MCF7, 24 h); 6.27 ± 0.24 µM in assay [3] (Homo sapiens, MDA-MB-231, 24 h).
For the compound `CCOC(=O)/C=C/c1ccc(OC(=O)[C@@]2(C)CC[C@]3(C)CC[C@]4(C)C(=CC(=O)[C@@H]5[C@@]6(C)CC[C@H](OC(=O)[C@@H](N)CCSC)C(C)(C)[C@@H]6CC[C@]54C)[C@@H]3C2)cc1` [Compound 47, trans-4-Hydroxycinnamic acid ethyl ester 3β-(l-methionine)-11-oxo-olean-12-en-30-oatehydrochloride], the IC50 is 5.65 ± 1.02 µM in assay [1] (setting [4]), 2.65 ± 0.12 µM in assay [2] (setting [5]) and 2.31 ± 0.65 µM in assay [3] (setting [6]).

Broadly, the IC50 is the concentration that gives 50% inhibition.

These data come from publication PMC6274419, “Synthesis and Anticancer Activities of Glycyrrhetinic Acid Derivatives” (Molecules, 2016).
